Article PMC8821551, “Binding of cationic analogues of α-MSH to lipopolysaccharide and disruption of the cytoplasmic membranes caused bactericidal action against Escherichia coli” (Scientific Reports, 2022)
Residues, ends and D or L forms follow the SMILES beside them.

Legend:
Format in all cases: cell-based, Escherichia coli
[1] = tested on: stationary phase E. coli cells; assay: Killing assay, stationary phase cells; conditions: 10^5 CFU/mL
Method: For this study, a well-characterized strain of E. coli (ATCC 25922) was used. The strain was stored at − 80 °C in 15% (v/v) glycerol until sub-cultured onto LB agar plates for use.
The antibacterial activity of α-MSH and its cationic analogues was determined against both logarithmic (2–3 h) and stationary (16–18 h) phase of E. coli cells in LB medium. The bacterial suspension was pelleted, washed, and diluted in HEPES-glucose buffer (5 mM HEPES, 20 mM glucose, pH 7.4) to adjust the cell density by measuring the OD = 0.5 (10^8 CFU/mL) at 600 nm using a spectrophotometer. This suspension was used to obtain the desired inoculum sizes (10^5 CFU/mL, 10^6 CFU/mL, and 10^7 CFU/mL). The inoculums were exposed to various concentrations of peptides (1 µM, 2 µM, 5 µM, and 10 µM) and incubated at 37 °C. Untreated E. coli cells were also included as a control. At selected time points (0 min, 15 min, 30 min, 60 min, and 120 min), aliquots were taken out, and survival of E. coli cells was determined by quantitative plating on LB agar after appropriate dilution in the same buffer. The plates were incubated overnight at 37 °C, followed by colony counting. Each experiment was performed at least three times on three independent days.

E. coli outer membrane = assay: Outer membrane permeabilization assay (NPN uptake); conditions: 10^8 CFU/mL mid-log cells, 10 μM NPN, relative to 10 µM polymyxin B = 100%
Method: The outer membrane permeabilization assay was done as described in the literature with slight modifications. Briefly, bacterial cells were grown to mid-log phase in LB medium, washed and diluted to 10^8 CFU/mL in HEPES-glucose buffer. Next, this bacterial suspension was treated with 10 μM NPN probe and subsequently challenged with increasing concentrations of peptides (1 µM to 20 µM). Changes in the fluorescence intensity of NPN were measured with the help of Shimadzu RF-5301 PC spectrofluorimeter (excitation at 350 nm and emission at 420 nm). Increased intensity of emission resulted from the damage to the bacterial outer membrane and was measured until no further increase in fluorescence was observed. NPN uptake was calculated using the following formula: %NPNuptake=Fobs-F0/F100-F0×100 where Fobs is the NPN fluorescence intensity after the peptide treatment, F0 is the NPN fluorescence with untreated E. coli cells, and F100 is the NPN fluorescence in the presence of 10 µM polymyxin B (a positive control).

[2] = tested on: E. coli cytoplasmic or inner membrane; assay: Membrane depolarization assay (DiSC3(5)); conditions: DiSC3(5) 0.4 µM, 0.2 mM EDTA, 10^6 CFU/mL mid-log cells, HEPES-glucose buffer; peptide 1 to 10 µM
Method: The membrane depolarization of E. coli cells was determined using a potentiometric fluorescent probe DiSC3(5), as described elsewhere. Briefly, mid-log phase E. coli cells were diluted to 10^6 CFU/mL in the same HEPES-glucose buffer and were incubated with DiSC3(5) and EDTA at 0.4 µM and 0.2 mM concentrations, respectively, for 1 h in the dark at 37 °C, till the maximum uptake of the probe occurred. Increasing concentrations of the studied peptides from 1 µM to 10 µM were then added to these dye-loaded cells in a quartz cuvette, and the fluorescence intensity was measured on spectrofluorimeter (Shimadzu RF-5301 PC) set as excitation at 622 nm and emission at 670 nm. The increase in fluorescence intensity accounted for the dissipation of membrane potential caused due to peptide treatment. Cells treated with 10 µM melittin were used as a positive control. Simultaneously, the dye-loaded cells were plated onto LB agar to estimate bacterial cell death.

E. coli cells = assay: Membrane permeabilization assay (PI uptake, flow cytometry); conditions: 1 h; for PI positive cells: at lower and higher concentrations, from 2 to 10 µM, 10^6 CFU/mL, PI 1.3 µg/mL, 37 °C, flow cytometry; for cell viability on plating the cell suspension used for the PI uptake assay, in words: same cell density and peptide concentrations as PI uptake experiment
Method: Membrane permeabilization of E. coli cells was determined via propidium iodide (PI) uptake assay through flow cytometry as described previously with slight modifications. Briefly, mid-log phase E. coli cells were adjusted to 10^6 CFU/mL in the HEPES-glucose buffer. Next, cells were incubated with propidium iodide (PI) at 1.3 µg/mL concentration for 30 min in the dark. After incubation, PI-loaded cells were treated with a range of peptide concentrations, i.e., 1 µM, 2 µM, 5 µM, and 10 µM, at 37 °C for 1 h, and PI fluorescence intensity was measured through Becton Dickinson (BD) FACS verse (San Jose, CA) flow cytometer using excitation at 544 nm and emission at 620 nm.
Figure S2: Histograms of E. coli cells treated with 2 µM concentration of α-MSH and its analogues and 1 µM concentration of polymyxin B for 1 h. Towards monitoring the membrane permeabilizations of E. coli cells, propidium iodide (PI) uptake assay through flow cytometry was performed using the previously standardized method with mild modifications ^2. Briefly, mid-log phase grown E. coli cells (10^6 CFU/mL) suspended in the HEPES-glucose buffer were incubated with propidium iodide (PI) at a concentration of 1.3 µg/mL for 30 min in dark. After incubation, PI loaded cells were treated with a range of peptide concentrations; 1 µM, 2 µM, 5 µM and 10 µM at 37 °C for 1 h, and PI fluorescence intensity was measured through Becton Dickinson (BD) FACS verse (San Jose, CA) flow cytometer using excitation at 544 nm and emission at 620 nm.

E. coli ATCC 25922 = assay: Transmission electron microscopy (TEM) of treated cells; conditions: 100 µM peptide, 2 h, 37 °C, 10^8 CFU/mL mid-log cells
Method: To detect ultra-structural changes in E. coli on peptide treatment, TEM was used[16]. In brief, the mid-log E. coli cells (10^8 CFU/mL) were exposed with 100 µM concentration of all peptides independently for 2 h at 37 °C. After treatment, the cells were washed with PB buffer and fixed with 2.5% glutaraldehyde overnight at 4 °C. Next, the samples were post-fixed in 1.0% OsO4 and stained with uranyl acetate. After fixation, cells were dehydrated in a series of graded acetone and embedded in epoxy resin. Thin sections were made using a microtome (Leica EM UC6), which were transferred onto copper grids and stained with uranyl acetate followed by lead citrate. Samples were viewed via a transmission electron microscope (JEOL 2100F) to detect the ultrastructural and other morphological changes in the bacterial cells.

[3] = peptide 1 μM, HEPES-glucose buffer, average of three independent days
[4] = peptide 20 μM (highest concentration)

Structure (SMILES): CSCC[C@H](NC(=O)[C@H](CCCCN)NC(=O)[C@H](Cc1ccc(O)cc1)NC(=O)[C@H](CCCCN)NC(C)=O)C(=O)N[C@@H](C)C(=O)N[C@@H](Cc1c[nH]cn1)C(=O)N[C@@H](Cc1ccccc1)C(=O)N[C@@H](CCCNC(=N)N)C(=O)N[C@@H](Cc1c[nH]c2ccccc12)C(=O)NCC(=O)N[C@@H](CCCCN)C(=O)N1CCC[C@H]1C(=O)N[C@H](C(N)=O)C(C)C [KKA-MSH] (Ac-KYKMAHFRWGKPV-NH2)
- log reduction in cell viability ([1]; HEPES-glucose buffer, 37 °C, peptide 10 µM, 2 h, mean ± SE, three independent days, SEM): 2.2 ± 0.2 log
- killing activity against stationary phase cells, in words ([1]; peptide 10 µM, up to 2 h): could not obliterate the stationary phase cells
- %NPN uptake (E. coli outer membrane; [3]): 12.5%
- %NPN uptake (E. coli outer membrane; [4]): 55%
- lowest concentration that induced depolarization of E. coli inner membrane [2]: 2 µM
- PI positive cells (E. coli cells): more than 80%
- cell viability on plating the cell suspension used for the PI uptake assay, in words (E. coli cells): significant reduction in the cell viability
- ultrastructural changes by TEM, in words (E. coli ATCC 25922): complete collapse of the E. coli membrane

Structure (SMILES): CSCC[C@H](NC(=O)[C@H](CCCCN)NC(=O)[C@H](Cc1ccc(O)cc1)NC(=O)[C@H](CCCCN)NC(C)=O)C(=O)N[C@@H](CCCCN)C(=O)N[C@@H](Cc1c[nH]cn1)C(=O)N[C@@H](Cc1ccccc1)C(=O)N[C@@H](CCCNC(=N)N)C(=O)N[C@@H](Cc1c[nH]c2ccccc12)C(=O)NCC(=O)N[C@@H](CCCCN)C(=O)N1CCC[C@H]1C(=O)N[C@H](C(N)=O)C(C)C [KKK-MSH] (Ac-KYKMKHFRWGKPV-NH2)
- incubation time to complete removal of the cells ([1]; peptide 1 µM): 2 h
- log reduction in the viability of the stationary phase cells ([1]; peptide 1 µM, 1 h): 2.5 log
- incubation time to eradication of the stationary phase cells ([1]; peptide 10 µM): 30 min
- %NPN uptake (E. coli outer membrane; [3]): 30.7%
- %NPN uptake (E. coli outer membrane; peptide 2 μM): 34%
- %NPN uptake (E. coli outer membrane; peptide 5 μM): 55.6%
- %NPN uptake (E. coli outer membrane; peptide 10 μM): 77.6%
- %NPN uptake (E. coli outer membrane; [4]): 86%
- lowest concentration that induced depolarization of E. coli inner membrane [2]: 2 µM
- PI positive cells (E. coli cells): more than 80%
- cell viability on plating the cell suspension used for the PI uptake assay, in words (E. coli cells): significant reduction in the cell viability
- ultrastructural changes by TEM, in words (E. coli ATCC 25922): complete collapse of the E. coli membrane
